Experimental data reported in paper PMC10408569, “Recruitment of hexahydroquinoline as anticancer scaffold targeting inhibition of wild and mutants EGFR (EGFR^WT, EGFR^T790M, and EGFR^L858R)” (Journal of Enzyme Inhibition and Medicinal Chemistry, 2023).

How the values were obtained:
[1] = test system: MDA-MB-435; assay: NCI-60 anticancer screening (SRB); assay type: cell-based; details: Homo sapiens; MDA-MB-435, melanoma; one dose 10 μM; read-out: Growth Inhibition Percentage (GI %)
[2] = test system: ACHN; assay: NCI-60 anticancer screening (SRB); assay type: cell-based; details: Homo sapiens, renal cancer, one dose 10 μM, read-out: Growth Inhibition Percentage (GI %)
[3] = test system: NCI-H322M; assay: NCI-60 anticancer screening (SRB); assay type: cell-based; details: Homo sapiens, NSC lung cancer, one dose 10 μM, read-out: Growth Inhibition Percentage (GI %)
[4] = test system: UACC-257; assay: NCI-60 anticancer screening (SRB); assay type: cell-based; details: Homo sapiens; UACC-257, melanoma; one dose 10 μM; read-out: Growth Inhibition Percentage (GI %)
[5] = test system: SNB-19; assay: NCI-60 anticancer screening (SRB); assay type: cell-based; details: Homo sapiens; SNB-19, CNS cancer; one dose 10 μM; read-out: Growth Inhibition Percentage (GI %)
[6] = test system: IGROV1; assay: NCI-60 anticancer screening (SRB); assay type: cell-based; details: Homo sapiens, IGROV-1; IGROV1, ovarian cancer; one dose 10 μM; read-out: Growth Inhibition Percentage (GI %)
[7] = test system: NCI-H460; assay: NCI-60 anticancer screening (SRB); assay type: cell-based; details: Homo sapiens; NCI-H460, NSC lung cancer; one dose 10 μM; read-out: Growth Inhibition Percentage (GI %)
[8] = test system: SR; assay: NCI-60 anticancer screening (SRB); assay type: cell-based; details: Homo sapiens, leukemia, one dose 10 μM, read-out: Growth Inhibition Percentage (GI %)
[9] = test system: SK-MEL-5; assay: NCI-60 anticancer screening (SRB); assay type: cell-based; details: Homo sapiens; SK-MEL-5, melanoma; one dose 10 μM; read-out: Growth Inhibition Percentage (GI %)
[10] = molecular target: EGFR^WT (Homo sapiens, UniProt P00533); assay: EGFR kinase inhibitory assay (HTRF)
Sequence of EGFR^WT (P00533 25-1210): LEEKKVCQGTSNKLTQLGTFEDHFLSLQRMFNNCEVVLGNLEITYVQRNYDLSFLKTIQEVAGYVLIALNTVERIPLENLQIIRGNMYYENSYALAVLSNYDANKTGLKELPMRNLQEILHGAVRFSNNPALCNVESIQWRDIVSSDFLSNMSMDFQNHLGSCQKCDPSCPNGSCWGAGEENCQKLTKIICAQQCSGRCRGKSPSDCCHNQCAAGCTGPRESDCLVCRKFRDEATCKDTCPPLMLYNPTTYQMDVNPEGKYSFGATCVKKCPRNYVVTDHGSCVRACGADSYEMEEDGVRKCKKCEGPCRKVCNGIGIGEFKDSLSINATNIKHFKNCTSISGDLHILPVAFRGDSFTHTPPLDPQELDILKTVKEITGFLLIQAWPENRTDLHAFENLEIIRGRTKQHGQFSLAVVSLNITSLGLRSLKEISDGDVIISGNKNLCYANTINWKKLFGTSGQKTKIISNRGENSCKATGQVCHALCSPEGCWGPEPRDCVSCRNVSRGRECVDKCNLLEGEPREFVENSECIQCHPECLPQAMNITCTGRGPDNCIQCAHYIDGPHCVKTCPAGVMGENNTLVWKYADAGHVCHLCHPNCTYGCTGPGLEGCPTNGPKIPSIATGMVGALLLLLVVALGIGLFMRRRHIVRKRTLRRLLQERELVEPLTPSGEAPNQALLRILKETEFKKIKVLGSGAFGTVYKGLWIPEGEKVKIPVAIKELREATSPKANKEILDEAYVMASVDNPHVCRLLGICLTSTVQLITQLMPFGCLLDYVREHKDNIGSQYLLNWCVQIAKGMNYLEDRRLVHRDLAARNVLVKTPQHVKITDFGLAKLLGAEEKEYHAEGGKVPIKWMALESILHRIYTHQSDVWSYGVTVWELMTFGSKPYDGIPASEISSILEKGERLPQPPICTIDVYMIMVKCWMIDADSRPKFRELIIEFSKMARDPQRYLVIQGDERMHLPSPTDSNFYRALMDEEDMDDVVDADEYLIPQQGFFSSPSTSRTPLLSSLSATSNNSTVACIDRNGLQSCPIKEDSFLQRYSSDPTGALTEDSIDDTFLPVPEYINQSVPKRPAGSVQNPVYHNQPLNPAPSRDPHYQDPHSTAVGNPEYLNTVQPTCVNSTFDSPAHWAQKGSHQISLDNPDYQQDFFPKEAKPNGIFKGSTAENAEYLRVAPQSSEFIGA

[11] = test system: SN 12C; assay: NCI-60 anticancer screening (SRB); assay type: cell-based; details: Homo sapiens, SN12C; SN 12C, renal cancer; one dose 10 μM; read-out: Growth Inhibition Percentage (GI %)
[12] = test system: OVCAR-5; assay: NCI-60 anticancer screening (SRB); assay type: cell-based; details: Homo sapiens; OVCAR-5, ovarian cancer; one dose 10 μM; read-out: Growth Inhibition Percentage (GI %)
[13] = test system: PC-3; assay: NCI-60 anticancer screening (SRB); assay type: cell-based; details: Homo sapiens; PC-3, prostate cancer; one dose 10 μM; read-out: Growth Inhibition Percentage (GI %)
[14] = molecular target: EGFR^L858R (Homo sapiens, UniProt P00533, L858R); assay: biochemical
Sequence of EGFR^L858R (P00533 25-1210 L858R): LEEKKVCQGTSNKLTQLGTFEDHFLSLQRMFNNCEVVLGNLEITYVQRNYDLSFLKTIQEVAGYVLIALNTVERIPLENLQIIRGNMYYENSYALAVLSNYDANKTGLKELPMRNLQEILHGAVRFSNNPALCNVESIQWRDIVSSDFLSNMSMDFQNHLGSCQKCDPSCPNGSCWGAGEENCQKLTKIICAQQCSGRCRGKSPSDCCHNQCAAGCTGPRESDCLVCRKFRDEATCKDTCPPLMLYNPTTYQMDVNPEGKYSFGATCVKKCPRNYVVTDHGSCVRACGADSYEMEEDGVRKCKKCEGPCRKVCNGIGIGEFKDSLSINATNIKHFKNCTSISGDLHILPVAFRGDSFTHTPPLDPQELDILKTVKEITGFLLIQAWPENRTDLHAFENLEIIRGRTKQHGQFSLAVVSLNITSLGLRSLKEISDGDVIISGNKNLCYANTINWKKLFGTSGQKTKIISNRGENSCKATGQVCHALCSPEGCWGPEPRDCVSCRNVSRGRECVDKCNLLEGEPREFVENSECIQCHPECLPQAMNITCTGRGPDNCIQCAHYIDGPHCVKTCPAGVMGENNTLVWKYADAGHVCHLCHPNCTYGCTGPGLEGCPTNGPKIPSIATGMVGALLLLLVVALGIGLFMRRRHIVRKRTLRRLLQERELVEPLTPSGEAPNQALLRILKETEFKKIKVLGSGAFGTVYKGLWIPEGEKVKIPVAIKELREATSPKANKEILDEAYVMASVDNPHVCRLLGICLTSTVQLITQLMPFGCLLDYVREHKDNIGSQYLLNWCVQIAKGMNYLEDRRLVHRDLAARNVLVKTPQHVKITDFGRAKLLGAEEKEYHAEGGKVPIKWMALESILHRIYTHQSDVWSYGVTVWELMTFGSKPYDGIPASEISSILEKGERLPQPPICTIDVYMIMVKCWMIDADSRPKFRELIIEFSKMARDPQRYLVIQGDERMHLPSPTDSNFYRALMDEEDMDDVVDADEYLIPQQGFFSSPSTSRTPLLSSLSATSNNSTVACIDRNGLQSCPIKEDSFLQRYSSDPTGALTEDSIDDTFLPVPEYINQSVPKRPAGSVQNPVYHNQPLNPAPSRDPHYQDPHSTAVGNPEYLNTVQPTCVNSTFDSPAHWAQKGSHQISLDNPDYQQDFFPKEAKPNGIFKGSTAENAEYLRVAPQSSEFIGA

[15] = test system: HCC-2998; assay: NCI-60 anticancer screening (SRB); assay type: cell-based; details: Homo sapiens; HCC-2998, colon cancer; one dose 10 μM; read-out: Growth Inhibition Percentage (GI %)
[16] = test system: RXF 393; assay: NCI-60 anticancer screening (SRB); assay type: cell-based; details: Homo sapiens; RXF 393, renal cancer; one dose 10 μM; read-out: Growth Inhibition Percentage (GI %)
[17] = test system: RPMI-8226; assay: NCI-60 anticancer screening (SRB); assay type: cell-based; details: Homo sapiens; RPMI-8226, leukemia; one dose 10 μM; read-out: Growth Inhibition Percentage (GI %)
[18] = test system: T-47D; assay: NCI-60 anticancer screening (SRB); assay type: cell-based; details: Homo sapiens, T47D, breast cancer, one dose 10 μM, read-out: Growth Inhibition Percentage (GI %)
[19] = test system: MDA-MB-231; assay: NCI-60 anticancer screening (SRB); assay type: cell-based; details: Homo sapiens; MDA-MB-231, breast cancer; one dose 10 μM; read-out: Growth Inhibition Percentage (GI %)
[20] = test system: A549/ATCC; assay: NCI-60 anticancer screening (SRB); assay type: cell-based; details: Homo sapiens; A549/ATCC, NSC lung cancer; one dose 10 μM; read-out: Growth Inhibition Percentage (GI %)
[21] = test system: SK-OV-3; assay: NCI-60 anticancer screening (SRB); assay type: cell-based; details: Homo sapiens; SK-OV-3, ovarian cancer; one dose 10 μM; read-out: Growth Inhibition Percentage (GI %)
[22] = test system: SW-620; assay: NCI-60 anticancer screening (SRB); assay type: cell-based; details: Homo sapiens; SW-620, colon cancer; one dose 10 μM; read-out: Growth Inhibition Percentage (GI %)
[23] = test system: HT29; assay: NCI-60 anticancer screening (SRB); assay type: cell-based; details: Homo sapiens, HT-29; HT29, colon cancer; one dose 10 μM; read-out: Growth Inhibition Percentage (GI %)
[24] = test system: HCT-15; assay: NCI-60 anticancer screening (SRB); assay type: cell-based; details: Homo sapiens; HCT-15, colon cancer; one dose 10 μM; read-out: Growth Inhibition Percentage (GI %)
[25] = molecular target: EGFR^T790M (Homo sapiens, UniProt P00533, T790M); assay: biochemical
Sequence of EGFR^T790M (P00533 25-1210 T790M): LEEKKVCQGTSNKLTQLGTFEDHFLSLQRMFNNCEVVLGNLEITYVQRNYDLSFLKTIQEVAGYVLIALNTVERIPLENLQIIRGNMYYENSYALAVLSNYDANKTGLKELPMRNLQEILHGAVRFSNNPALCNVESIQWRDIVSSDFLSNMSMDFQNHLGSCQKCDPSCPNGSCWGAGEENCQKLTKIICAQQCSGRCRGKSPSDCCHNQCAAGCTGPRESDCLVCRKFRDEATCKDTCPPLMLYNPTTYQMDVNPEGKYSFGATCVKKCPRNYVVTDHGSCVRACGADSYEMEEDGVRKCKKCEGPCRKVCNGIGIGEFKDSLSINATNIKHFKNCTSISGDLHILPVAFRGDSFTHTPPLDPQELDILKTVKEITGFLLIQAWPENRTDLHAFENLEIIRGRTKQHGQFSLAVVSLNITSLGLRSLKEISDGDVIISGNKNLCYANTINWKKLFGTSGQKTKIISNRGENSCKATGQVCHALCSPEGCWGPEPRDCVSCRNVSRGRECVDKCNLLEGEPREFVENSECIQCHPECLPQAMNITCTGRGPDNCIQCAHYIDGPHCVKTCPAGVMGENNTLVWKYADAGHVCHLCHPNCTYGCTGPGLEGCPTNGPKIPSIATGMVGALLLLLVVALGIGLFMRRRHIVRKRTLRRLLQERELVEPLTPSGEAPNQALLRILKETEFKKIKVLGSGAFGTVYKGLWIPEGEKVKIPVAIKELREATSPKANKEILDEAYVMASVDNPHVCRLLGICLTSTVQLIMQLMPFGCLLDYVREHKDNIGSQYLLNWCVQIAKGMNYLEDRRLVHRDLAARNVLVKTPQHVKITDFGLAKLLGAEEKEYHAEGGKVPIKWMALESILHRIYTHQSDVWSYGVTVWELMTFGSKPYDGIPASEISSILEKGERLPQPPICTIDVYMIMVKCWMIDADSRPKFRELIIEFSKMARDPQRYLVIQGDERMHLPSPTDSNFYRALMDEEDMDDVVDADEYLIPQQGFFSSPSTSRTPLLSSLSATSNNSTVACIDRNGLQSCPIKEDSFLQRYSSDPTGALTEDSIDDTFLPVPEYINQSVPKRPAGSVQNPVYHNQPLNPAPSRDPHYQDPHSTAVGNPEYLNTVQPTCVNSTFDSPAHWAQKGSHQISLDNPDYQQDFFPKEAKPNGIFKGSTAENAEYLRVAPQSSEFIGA

[26] = test system: NCI 60 cancer cell lines; assay: NCI-60 anticancer screening (SRB), whole panel; assay type: cell-based, human; details: mean across the NCI-60 panel; one dose 10 μM
[27] = test system: KM 12; assay: NCI-60 anticancer screening (SRB); assay type: cell-based; details: Homo sapiens, KM12; KM 12, colon cancer; one dose 10 μM; read-out: Growth Inhibition Percentage (GI %)
[28] = test system: HOP-62; assay: NCI-60 anticancer screening (SRB); assay type: cell-based; details: Homo sapiens; HOP-62, NSC lung cancer; one dose 10 μM; read-out: Growth Inhibition Percentage (GI %)
[29] = test system: HCT-116; assay: NCI-60 anticancer screening (SRB); assay type: cell-based; details: Homo sapiens; HCT-116, colon cancer; one dose 10 μM; read-out: Growth Inhibition Percentage (GI %)
[30] = test system: SF-539; assay: NCI-60 anticancer screening (SRB); assay type: cell-based; details: Homo sapiens; SF-539, CNS cancer; one dose 10 μM; read-out: Growth Inhibition Percentage (GI %)

| SMILES | inhibition at 10 µM [1] [%] | inhibition at 10 µM [2] [%] | inhibition at 10 µM [3] [%] | inhibition at 10 µM [4] [%] | inhibition at 10 µM [5] [%] | inhibition at 10 µM [6] [%] | inhibition at 10 µM [7] [%] | inhibition at 10 µM [8] [%] | inhibition at 10 µM [9] [%] | inhibition at 10 µM [11] [%] | inhibition at 10 µM [12] [%] | inhibition at 10 µM [13] [%] | inhibition at 10 µM [15] [%] | inhibition at 10 µM [16] [%] | inhibition at 10 µM [17] [%] | inhibition at 10 µM [18] [%] | inhibition at 10 µM [19] [%] | inhibition at 10 µM [20] [%] | inhibition at 10 µM [21] [%] | inhibition at 10 µM [22] [%] | other results |
| --- | --- | --- | --- | --- | --- | --- | --- | --- | --- | --- | --- | --- | --- | --- | --- | --- | --- | --- | --- | --- | --- |
| CCOC(=O)C1=C(N)N(c2ccccc2)C2=C(C(=O)CC(C)(C)C2)C1c1ccccc1Cl (racemic) [6a, (±)-Ethyl 2-amino-4–(2-chlorophenyl)-7,7-dimethyl-5-oxo-1-phenyl-1,4,5,6,7,8-hexahydroquinoline-3-carboxylate] | 27 | 31 | 18 | 28 | 30 | < 10 | 40 | 68 | 40 | 25 | 14 | 71 | 15 | 22 | 78 | 48 | 16 | 25 | < 10 | 26 | IC50 [10]: 358 ± 160 nM; IC50 [14]: 490 ± 4 nM; inhibition at 10 µM [23]: 45%; inhibition at 10 µM [24]: 51%; IC50 [25]: 610 ± 5 nM; GI % mean [26]: 33%; inhibition at 10 µM [27]: 42%; inhibition at 10 µM [28]: < 10%; inhibition at 10 µM [29]: 59%; inhibition at 10 µM [30]: < 10% |
| CCOC(=O)C1=C(N)N(c2ccc(Cl)cc2)C2=C(C(=O)CC(C)(C)C2)C1c1ccccc1Cl (racemic) [6c, (±)-Ethyl 2-amino-4–(2-chlorophenyl)-1–(4-chlorophenyl)-7,7-dimethyl-5-oxo-1,4,5,6,7,8-hexahydroquinoline-3-carboxylate] | 29 | 40 | < 10 | 50 | 27 | < 10 | 58 | < 10 | 66 | 31 | < 10 | 76 | 24 | < 10 | < 10 | 67 | 24 | 51 | 29 | 48 | IC50 [10]: 277 ± 120 nM; IC50 [14]: 500 ± 4 nM; inhibition at 10 µM [23]: 60%; inhibition at 10 µM [24]: 62%; IC50 [25]: 530 ± 4 nM; GI % mean [26]: 34%; inhibition at 10 µM [27]: 44%; inhibition at 10 µM [28]: 19%; inhibition at 10 µM [29]: 66%; inhibition at 10 µM [30]: < 10% |
| CCOC(=O)C1=C(N)N(c2ccccc2)C2=C(C(=O)CC(C)(C)C2)C1c1ccccc1Br (racemic) [6d, (±)-Ethyl 2-amino-4–(2-bromophenyl)-7,7-dimethyl-5-oxo-1-phenyl-1,4,5,6,7,8-hexahydroquinoline-3-carboxylate] | < 10 | 11 | < 10 | < 10 | < 10 | < 10 | 20 | 14 | < 10 | < 10 | < 10 | 33 | < 10 | < 10 | 35 | 30 | < 10 | 13 | < 10 | < 10 | IC50 [10]: 99 ± 20 nM; IC50 [14]: 250 ± 5 nM; inhibition at 10 µM [23]: 17%; inhibition at 10 µM [24]: 17%; IC50 [25]: 410 ± 2 nM; GI % mean [26]: 12%; inhibition at 10 µM [27]: < 10%; inhibition at 10 µM [28]: < 10%; inhibition at 10 µM [29]: 21%; inhibition at 10 µM [30]: < 10% |
| CCOC(=O)C1=C(N)N(c2ccc(C)cc2)C2=C(C(=O)CC(C)(C)C2)C1c1cccnc1 (racemic) [12e, (±)-Ethyl 2-amino-7,7-dimethyl-1–(4-methylphenyl)-5-oxo-1-phenyl-4-(pyrdin-3-yl)-1,4,5,6,7,8-hexahydroquinoline-3-carboxylate] | < 10 | < 10 | < 10 | < 10 | < 10 | < 10 | < 10 | < 10 | < 10 | < 10 | < 10 | 12 | < 10 | < 10 | 11 | < 10 | < 10 | < 10 | < 10 | < 10 | inhibition at 10 µM [23]: < 10%; inhibition at 10 µM [24]: < 10%; GI % mean [26]: - ((-) = GI % mean less than 10); inhibition at 10 µM [27]: < 10%; inhibition at 10 µM [28]: < 10%; inhibition at 10 µM [29]: < 10%; inhibition at 10 µM [30]: < 10% |
| CCOC(=O)C1=C(N)N(c2ccc(Cl)cc2)C2=C(C(=O)CC(C)(C)C2)C1c1cccnc1 (racemic) [12f, (±)-Ethyl 2-amino-1–(4-chlorophenyl)-7,7-dimethyl-5-oxo-4-(pyridin-3-yl)-1,4,5,6,7,8-hexahydroquinoline-3-carboxylate] | < 10 | < 10 | < 10 | < 10 | < 10 | < 10 | < 10 | < 10 | < 10 | < 10 | < 10 | < 10 | < 10 | < 10 | 12 | 25 | < 10 | 15 | < 10 | < 10 | inhibition at 10 µM [23]: < 10%; inhibition at 10 µM [24]: < 10%; GI % mean [26]: - ((-) = GI % mean less than 10); inhibition at 10 µM [27]: < 10%; inhibition at 10 µM [28]: < 10%; inhibition at 10 µM [29]: < 10%; inhibition at 10 µM [30]: 12% |
